Here are results for one molecule from patent US20060173062A1, “Use of selective cyclooxygenase-2 inhibitors for the treatment of endometriosis” (priority 2003, published 2006).

The assay deals with rat uterine horn implants in the peritoneal cavity. The experiment in a line: Rat model for endometriosis. It is filed as in vivo. Conditions: 14 days; for implant volume: FIG. 1; for implant weight: FIG. 2. From the text: FIG. 1 compares the mean volume of rat uterine horn implants in the peritoneal cavity of rats before and after 14 days of administration of a cyclooxygenase-2-selective inhibitor.
FIG. 2 compares the in mean weight of rat uterine horn implants in the peritoneal cavity of rats before and after 14 days of administration of a cyclooxygenase-2-selective inhibitor.
Rat Model for Endometriosis:
In this model 5×5 mm sections of rat uterine hom are implanted in the peritoneal cavity (extra uterine endometrial wall) of subject rats. Four weeks after transplantation of the endometrial tissues, rats were anesthetized with Telazol (20 mg/kg, IP, Fort Dodge Animal Health, Fort Dodge, Iowa), Oxymorphone (0.2 mg/kg SC, Henry Schein, Melville, N.Y.) and immobilized on a standard rat operating board. The surgical site was shaved and cleaned using three cycles of Betadine/alcohol or DuraPrep® (3M, St. Paul, Minn.). Using aseptic technique, an incision was made through the skin, SC and muscle layers. The growth of the explant was evaluated for size and acceptance/rejection. On gross examination, the endometrial implants appeared as uni-loculated (occasional as multilobulated) cystic masses filled with clear/light yellowish or dark brown serous fluid. In some instances, at the time of 2nd laparotomy, partial or complete adhesions from connective tissue, mesentry, and bowel to the implants were noted. In those instances, a careful separation was executed, avoiding the rupture the implants. While having a clear vision of the implants, the length, width and height of the implant was measured using a sterile Jameson Caliper (BRI, Rockville, Md.), and documented. The abdominal incisions were closed by using 4-0 chromic gut (Ethicon). The rats were observed until fully ambulatory.
More animals than required for the study were used for surgery. After the 2nd laparotomy, animals were assigned to control or treated groups in an attempt to equalize the endometrium implant size between groups. The rats bearing implant with clear/light yellowish fluid were used in study group selection. The rats bearing implant with dark brown fluid considered as hemorrhagic solid mass were excluded from the study.
Treatment with selected drug therapy started after 1 day of post-surgical recovery. Rats were given the test compound, the cyclooxygenase-2 selective inhibitor Compound A, or vehicle alone or Raloxifene (10 mpk) or Lupron Depot (1 mpk) for a period of 14 days. At the end of the 14-day treatment period, the animals were euthanized at pro-estrus cycle which was confirmed by vaginal smear. Necropsy involved opening the abdomen and evaluating the implant size. The implant and right uterine horn were excised for wet weighing.
Compound A has the following structure: [drawing 1] […]

Consider `CS(=O)(=O)c1ccc(C2COC(=O)C2c2ccc(F)c(F)c2)cc1` (stereo not shown) [Compound A], for which the implant volume result by setting is: (1 mpk, BID by oral gavage) “not significant at the 95 percent confidence level”; (10 mpk, BD by oral gavage) “reduce implant volume and weight to a significant degree at the 95 percent confidence level”. Besides, the implant weight result is, setting by setting: (1 mpk, BID by oral gavage) “not significant at the 95 percent confidence level”; (10 mpk, BD by oral gavage) “reduce implant volume and weight to a significant degree at the 95 percent confidence level”.
